Measurements as given in the NIST ThermoML archive (doi:10.1016/j.jct.2018.12.018).

Details: Liquid, Vibrating tube method

CC(C)O [propan-2-ol]
mass density [kg/m3]
Details	333.15 K	353.15 K	373.15 K	393.15 K
1000 kPa	–	729.8	706.6	680.4
5000 kPa	–	735	712.8	688.2
10000 kPa	–	741	719.9	696.7
15000 kPa	–	746.5	726.3	704.4
20000 kPa	–	751.7	732	711.4
25000 kPa	773.6	756.5	737.7	717.6
30000 kPa	777.7	761	742.9	723.5
35000 kPa	781.5	765.4	747.8	729
40000 kPa	785.3	769.3	752.2	734.2
45000 kPa	788.9	773.3	756.6	739
50000 kPa	792.3	777	760.7	743.5
55000 kPa	795.6	780.6	764.7	747.9
60000 kPa	798.7	784	768.6	752.1
65000 kPa	801.8	787.4	772.1	756.1
70000 kPa	804.8	790.6	775.6	760
80000 kPa	810.5	796.7	782.3	767.2
90000 kPa	815.9	802.6	788.5	773.9
100000 kPa	820.9	808	794.4	780.2
110000 kPa	825.8	813.2	799.9	786.2
120000 kPa	830.4	818.1	805.3	791.8
130000 kPa	834.8	822.8	810.2	797.2
140000 kPa	839.2	827.3	815.1	802.3
